The target in test [1] is T1, Tau K18 fragment aggregates (amino acids 244 to 372 of human Tau441) (Homo sapiens, UniProt P10636).
T1 construct: encompassing amino acids 244 to 372 of the longest isoform (2N4R) of human Tau441; host or cells: bacteria
The test is described as follows: Tau K18 disaggregation assay by ThT. Format: biochemical. The settings on record: ThT fluorescence; 2 μM K18 aggregates, 30 minutes at RT. The protocol: Tau K18 Disaggregation Assay by ThT
The Tau K18 fragment, encompassing amino acids 244 to 372 of the longest isoform (2N4R) of human Tau441, was expressed in bacteria and purified or bought from SignalChem. For the K18 disaggregation assay by ThT, 35 μM of recombinant K18 in PBS were aggregated for 24 hours at 37° C. in presence of 50 μM of heparin (Sigma-Aldrich) and 10 mM of DTT (Sigma-Aldrich) under shaking at 750 RPM. Compounds were dissolved in anhydrous dimethyl sulfoxide (DMSO, Sigma-Aldrich) to reach a concentration of 10 mM. K18 aggregates and serial dilutions of compounds were mixed together in PBS (volume 50 μL) to a final concentration of 2 μM of K18 aggregates and from 160 to 0.04 μM of compounds. The mixture was incubated for 30 minutes at room temperature (RT), then 40 μL of this mixture were transferred into a black 384-well plate assay (Perkin-Elmer) and mixed with 10 μL of 100 μM ThT in 250 mM glycine (both from Sigma-Aldrich) in PBS. Fluorescence (relative fluorescence units; RFU) was measured in monoplicate or duplicate on a Tecan reader (excitation: 440 nm; emission: 485 nm). Percentage of K18 disaggregation was then calculated and half maximal effective concentration (E050) was determined using GraphPad Prism version 5 (GraphPad Software) assuming a one-binding site fitting model.

For test [2], the target named is T2, Aggregated human Tau in human neuroblastoma cell line overexpressing full-length human Tau P301L (Homo sapiens, UniProt P10636, P618L).
T2 construct: overexpressing the full-length form of human Tau carrying the P301L mutation; expressed in transfected cells; host or cells: human neuroblastoma cell line (G418 selection)
The test is described as follows: Reduction of intracellular Tau aggregation (AlphaLISA, aggregated Tau normalized to total Tau). It is filed as cell-based. The settings on record: compound at 5 μM, 24 h, relative to DMSO-treated cells. Here is the method:
Reduction of Intracellular Tau Aggregation
A human neuroblastoma cell line overexpressing the full-length form of human Tau carrying the P301L mutation was cultured in complete medium [DMEM-F12 4.5 g/L Glutamax (Invitrogen), 15% FBS (Biochrom), 1% Peni/Strep (Invitrogen) supplemented with 2.5 μg/ml of G418 (Sigma-Aldrich) selection antibiotic]. The day before the experiment 5×10^5 cells/well were plated in a 6 well plate in 3 mL of complete medium. The next day, cells were incubated with DMSO or a compound of the present invention at 5 μM for additional 24 h at 37° C. After incubation, cells were trypsinized, resupsended in 100 μl of homogenization buffer [25 mM Tris-HCl pH 7.4, 150 mM NaCl, 1 mM EDTA, 1 mM EGTA containing phosphatase inhibitors (30 mM NaF, 0.2 mM Na3VO4, 1 nM okadaic acid, 1 mM PMSF, 5 mM Na4P2O7) and protease inhibitor cocktail (Complete™, Roche)], and then physically lysed with three rapid cycles of freezing and thawing. Samples were then directly tested in the AlphaLISA assay.
Phosphorylated, aggregated, and total Tau were quantified by AlphaLisa using the following antibody pairs: • HT7-Acceptor beads+biotin (BT)-Tau13-Donor beads: Total Tau • HT7-Acceptor beads+biotin (BT)-HT7-Donor beads: Aggregated human Tau
The Tau13 (Abcam) was biotinylated using EZ-Link® NHS-PEO Solid Phase biotinylation kit (Thermo Scientific), while the HT7-biotin was from a commercial source (Thermo Scientific).
For each antibody pairs the concentration of acceptor beads and biotinylated antibodies was optimized. All samples were first tested in a dilution series in PBS in order to identify the linear range and optimal dilution for each sample and assay. For the final protocol, the following reagents were added in a 384-well white OptiPlate (PerkinElmer): • 5 μL of test diluted sample • 20 μL of the mixture biotin-mAb acceptor beads at the following final concentrations: • HT7-BT at 1.25 nM in combination with HT7-Acc beads at 10 μg/ml • Tau13-BT at 5 nM in combination with HT7-Acc beads at 2.5 μg/ml
After incubation of this mixture at room temperature for 1 h, 25 μL of Streptavidin Donor beads (Perkin Elmer) at 25 μg/mL were added in the dark. Plates were analyzed after 30 min incubation using the EnSpire Alpha instrument and EnSpire Workstation version 3.00. Data for aggregated Tau were normalized to total Tau and then expressed as percentage of the DMSO-treated cells.
On the technique in general: In Alpha technology, singlet oxygen from a donor bead excites a nearby acceptor bead.

Test [3] deals with T3, monomeric flTau (human Tau 2N4R; 441 amino acids) (Homo sapiens, UniProt P10636).
T3 construct: purchased Biotechne (USA); host or cells: E coli
Briefly: Full-length Tau inhibition of aggregation assay by ThT (seeded with AD brain PHF). It is filed as biochemical. The conditions noted are these: 4 μM monomeric flTau + AD brain PHF 1:200, 72 h at 37° C. The protocol:
Full-Length Tau (fIT) Inhibiton of Aggregation Assay by ThT
The isoform of human Tau (2N4R; 441 amino acids) was purchased from Biotechne (USA). The protein was expressed in bacteria E coli, purified and concentrated in PBS to a final concentration of 50 μM.
To induce Tau aggregation, 4 μM of monomeric flTau was incubated for 72 hours at 37° C. under agitation cycles consisting of both orbital shaking and mixing function using the Hula Mixer (Life Technologies) with Tau paired-helical filaments (PHF) enriched from the post-mortem brain of one Alzheimer's disease (AD) patient obtained from an external source (Tissue Solutions) diluted 1:200. The enrichment procedure was modified from Jicha et al, 1997 (Journal of Neuroscience Research 48:128-132 (1997)) and Rostagno and Ghiso, 2009 (Current protocols in cell biology (2009), Chapter 3, Unit 3.33 3.33.1-33). […]
To test the capability of compounds of this invention to inhibit Tau aggregation, serial dilution of compounds in DMSO were added to the monomeric flTau/PHF mix prior incubation. […] Fluorescence was measured in monoplicate on a Tecan reader Spark using filter (excitation at 448 nm/BW 7 nm, emission at 485 nm/BW 20 nm). A dose response type of curve was obtained out to two independent experiments each with technical duplicates and the IC50 was calculated using GraphPad Prism 7.03.

T3 sequence (P10636 1-441 isoform P10636-8): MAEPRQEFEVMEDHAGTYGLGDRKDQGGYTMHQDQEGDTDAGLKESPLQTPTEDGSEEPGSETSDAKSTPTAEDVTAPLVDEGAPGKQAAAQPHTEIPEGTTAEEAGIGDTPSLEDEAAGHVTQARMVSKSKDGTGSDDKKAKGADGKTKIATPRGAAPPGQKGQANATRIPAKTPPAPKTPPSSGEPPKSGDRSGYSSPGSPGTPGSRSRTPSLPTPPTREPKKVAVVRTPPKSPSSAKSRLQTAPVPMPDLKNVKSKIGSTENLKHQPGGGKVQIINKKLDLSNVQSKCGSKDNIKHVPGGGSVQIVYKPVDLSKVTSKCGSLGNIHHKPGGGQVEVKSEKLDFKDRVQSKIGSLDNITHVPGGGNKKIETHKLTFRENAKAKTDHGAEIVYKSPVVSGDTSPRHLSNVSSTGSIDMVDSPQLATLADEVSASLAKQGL
T1 sequence (P10636 561-689): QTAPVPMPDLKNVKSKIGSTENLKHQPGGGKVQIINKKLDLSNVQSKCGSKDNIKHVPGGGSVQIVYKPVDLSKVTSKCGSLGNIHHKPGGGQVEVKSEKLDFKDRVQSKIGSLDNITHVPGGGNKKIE
T2 sequence (P10636 1-441 isoform P10636-8 P301L): as the sequence (P10636 1-441 isoform P10636-8) above, with P301L counted along it

A word on the EC50: it is the concentration that produces a half-maximal response. What is called IC50 is the point on the concentration scale where inhibition reaches its midpoint. Turning to `c1ccc2c3c([nH]c2c1)CN(c1ccc(N2CCOCC2)nc1)CC3` [Example 44], the EC50 in test [1] is less than 10000 nM. In addition, in test [2], the “% Reduction of intracellular Tau aggregation” value was “+++ (+++ % > 50)”. In test [3], the IC50 came to 390 nM.
In test [1], `Cn1c2c(c3ccccc31)CCN(c1ccc(N3CCOCC3)nc1)C2` [Example 46] gave an EC50 of less than 10000 nM. Moreover, the “% Reduction of intracellular Tau aggregation” value in test [2] is listed as “++ (++ % 50 < x < 25)”. Further, the IC50 in test [3] was 1200 nM.
